Source: patent US9795607B2, “Substituted pyrrolopyrimidine compounds, compositions thereof, and methods of treatment therewith” (Signal Pharmaceutical, LLC, priority 2013, dated 2017)
pIC50: −log10 of the molar value. Read-outs that look alike come from different tables or passages of the source.

System: Triple negative breast cancer cell line CAL51
Experiment: Cell Titer Glo proliferation assay, CAL51
Format: cell-based
Settings: Homo sapiens, CAL-51, read-out: Act. Level
Summary of the method: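 CAL51 cells grown in DMEM or RPMI1640 with 10% FBS and 2 mM L-glutamine, cultured overnight, then exposed to serially diluted compound (0.2% DMSO final) for 72 h. Viability read by Cell Titer Glo luminescence.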

[1] = CAL51 cell proliferation, Cell Titer Glo
[2] = CAL51 cell proliferation (Table 1)

pIC50 [1]	pIC50 [2]	SMILES
> 7.00		CNC(=O)c1ccc(-c2c[nH]c3nc(Nc4ccc(C(=O)N5CC5)cc4OC)nc(O[C@H]4CC[C@@](C)(O)CC4)c23)cc1 [Example 336, 4-(2-(4-(aziridine-1-carbonyl)-2-methoxyphenylamino)-4-((1s,4s)-4-hydroxy-4-methylcyclohexyloxy)-7H-pyrrolo[2,3-d]pyrimidin-5-yl)-N-methylbenzamide]
	5.00 to 6.00	COc1nc(Nc2ccnn2C)nc2[nH]cc(-c3ccncc3)c12 [Example 401, 4-methoxy-N-(1-methyl-1H-pyrazol-5-yl)-5-(pyridin-4-yl)-7H-pyrrolo[2,3-d]pyrimidin-2-amine]
6.00 to 6.40		COc1nc(Nc2ccc(C(=O)N(C)C)cc2C)nc2[nH]cc(-c3cnn(C)c3)c12 [Example 398, 4-(4-methoxy-5-(1-methyl-1H-pyrazol-4-yl)-7H-pyrrolo[2,3-d]pyrimidin-2-ylamino)-N,N,3-trimethylbenzamide]
	> 7.00	COc1nc(Nc2ccc(C(=O)N(C)C)cc2C)nc2[nH]cc(-c3ccc4c(C)noc4c3)c12 [Example 400, 4-(4-methoxy-5-(3-methylbenzo[d]isoxazol-6-yl)-7H-pyrrolo[2,3-d]pyrimidin-2-ylamino)-N,N,3-trimethylbenzamide]
6.40 to 7.00		CCn1ncc(Nc2nc(OC3CCCC3)c3c(-c4ccc5nc(C)oc5c4)c[nH]c3n2)c1Cl [Example 385, N-(5-chloro-1-ethyl-1H-pyrazol-4-yl)-4-(cyclopentyloxy)-5-(2-methylbenzo[d]oxazol-6-yl)-7H-pyrrolo[2,3-d]pyrimidin-2-amine]
	> 7.00	Cc1cc(C(=O)N(C)C)ccc1Nc1nc(OC(C)C)c2c(-c3ccnc(F)c3)c[nH]c2n1 [Example 402, 4-(5-(2-fluoropyridin-4-yl)-4-isopropoxy-7H-pyrrolo[2,3-d]pyrimidin-2-ylamino)-N,N,3-trimethylbenzamide]
	> 7.00	CNC(=O)c1ccc(Nc2nc(OC(C)C)c3c(-c4ccc5nc(C)oc5c4)c[nH]c3n2)c(Cl)c1 [Example 426, 3-chloro-4-(4-isopropoxy-5-(2-methylbenzo[d]oxazol-6-yl)-7H-pyrrolo[2,3-d]pyrimidin-2-ylamino)-N-methylbenzamide]
	6.00 to 6.40	COc1cc(C(=O)N(C)C)ccc1Nc1nc(OC)c2c(-c3ccnc(F)c3)c[nH]c2n1 [Example 412, 4-(5-(2-fluoropyridin-4-yl)-4-methoxy-7H-pyrrolo[2,3-d]pyrimidin-2-ylamino)-3-methoxy-N,N-dimethylbenzamide]
	6.40 to 7.00	COc1cc(C(=O)N(C)C)ccc1Nc1nc(OC)c2c(-c3ccc4c(C)noc4c3)c[nH]c2n1 [Example 408, 3-methoxy-4-(4-methoxy-5-(3-methylbenzo[d]isoxazol-6-yl)-7H-pyrrolo[2,3-d]pyrimidin-2-ylamino)-N,N-dimethylbenzamide]
> 7.00		COc1cc(C(=O)NC2COC2)ccc1Nc1nc(OC)c2c(-c3cc(C)nc(C)c3)c[nH]c2n1 [Example 384, 4-(5-(2,6-dimethylpyridin-4-yl)-4-methoxy-7H-pyrrolo[2,3-d]pyrimidin-2-ylamino)-3-methoxy-N-(oxetan-3-yl)benzamide]

SMILES	pIC50 [1]	pIC50 [2]
CNC(=O)c1ccc(-c2c[nH]c3nc(Nc4ccc(C(=O)NC5COC5)cc4OC)nc(OC4CCC4)c23)cn1 [Example 352, 5-(4-cyclobutoxy-2-(2-methoxy-4-(oxetan-3-ylcarbamoyl)phenylamino)-7H-pyrrolo[2,3-d]pyrimidin-5-yl)-N-methylpicolinamide]	5.00 to 6.00	
CNC(=O)c1ccc(-c2c[nH]c3nc(Nc4cnn(CC(C)(C)O)c4Cl)nc(OC4CCC4)c23)cc1 [Example 372, 4-(2-(5-chloro-1-(2-hydroxy-2-methylpropyl)-1H-pyrazol-4-ylamino)-4-cyclobutoxy-7H-pyrrolo[2,3-d]pyrimidin-5-yl)-N-methylbenzamide]	> 7.00	
CNC(=O)c1ccc(-c2c[nH]c3nc(Nc4ccc(C(=O)NC5COC5)cc4C)nc(OC4CCC4)c23)cc1 [Example 332, 4-(4-cyclobutoxy-5-(4-(methylcarbamoyl)phenyl)-7H-pyrrolo[2,3-d]pyrimidin-2-ylamino)-3-methyl-N-(oxetan-3-yl)benzamide]	> 7.00	
